Source: ChEMBL document CHEMBL5352423, “Discovery of potent human dihydroorotate dehydrogenase inhibitors based on a benzophenone scaffold” (Eur J Med Chem, 2022)
Values after ≈ are worked out from the molar mass of the structure shown.

What was measured:
[1] = target: T1, Dihydroorotate dehydrogenase (quinone), mitochondrial (Homo sapiens, UniProt Q02127); experiment: Inhibition of human DHODH at 1 uM for 30 mins relative to control
[2] = target: T1, Dihydroorotate dehydrogenase (quinone), mitochondrial; experiment: Inhibition of human DHODH at 100 nM for 30 mins relative to control
[3] = target: T1, Dihydroorotate dehydrogenase (quinone), mitochondrial; experiment: Inhibition of human DHODH incubated for 30 mins
[4] = target: T1, Dihydroorotate dehydrogenase (quinone), mitochondrial; experiment: Potency index, ratio of teriflunomide IC50 to test compound IC50 for human DHODH
[5] = Toxicity in BALB/c mouse assessed as histopathological changes in liver administered at 300 mg/kg, po for 14 days; assay type: organism-based; details: in vivo, 336 h, time 14 day
[6] = Selectivity index ratio of IC50 for human HL7702 cells to IC50 for human Raji cells; assay type: toxicity; details: HL7702 cells and Raji cells, read-out: Ratio IC50
[7] = Toxicity in BALB/c mouse assessed as histopathological changes in spleen administered at 300 mg/kg, po for 14 days; assay type: organism-based; details: in vivo, 336 h, time 14 day
SUD4 = experiment: Antiproliferative activity against human SU-DHL-4 cells incubated for 96 hrs by MTT assay; assay type: functional, cell-based; details: SU-DHL-4, 96 h
[8] = Toxicity in BALB/c mouse assessed as change in blood neutrophil administered at 300 mg/kg, po for 14 days; assay type: organism-based; details: in vivo, 336 h, time 14 day
[9] = Toxicity in BALB/c mouse assessed as change in blood HGB administered at 300 mg/kg, po for 14 days; assay type: organism-based; details: in vivo, 336 h, time 14 day
HCT-116 = experiment: Antiproliferative activity against human HCT-116 cells incubated for 96 hrs by MTT assay; assay type: functional, cell-based; details: HCT-116, 96 h
[10] = Toxicity in BALB/c mouse assessed as change in blood RBC administered at 300 mg/kg, po for 14 days; assay type: organism-based; details: in vivo, 336 h, time 14 day
[11] = Toxicity in BALB/c mouse assessed as change in blood PLT administered at 300 mg/kg, po for 14 days; assay type: organism-based; details: in vivo, 336 h, time 14 day
[12] = Toxicity in BALB/c mouse assessed as change in blood WBC administered at 300 mg/kg, po for 14 days; assay type: organism-based; details: in vivo, 336 h, time 14 day
[13] = Toxicity in BALB/c mouse assessed as change in blood HCT administered at 300 mg/kg, po for 14 days; assay type: organism-based; details: in vivo, 336 h, time 14 day
[14] = Cytotoxicity against human HL7702 cells incubated for 96 hrs by MTT assay; assay type: toxicity, cell-based, L02
[15] = Aqueous solubility of compound; assay type: physicochemical; details: buffer
Kasumi 1 = experiment: Antiproliferative activity against human Kasumi 1 cells incubated for 96 hrs by MTT assay; assay type: functional, cell-based; details: Kasumi 1, 96 h
[16] = Cytotoxicity against human HCoEpiC cells incubated for 96 hrs by MTT assay; assay type: toxicity, cell-based
[17] = Toxicity in BALB/c mouse assessed as change in blood MCV administered at 300 mg/kg, po for 14 days; assay type: organism-based; details: in vivo, 336 h, time 14 day
Raji = experiment: Antiproliferative activity against human Raji cells incubated for 96 hrs by MTT assay; assay type: functional, cell-based
[18] = target: Voltage-gated inwardly rectifying potassium channel KCNH2 (Homo sapiens, UniProt Q12809); experiment: Inhibition of human ERG; assay type: toxicity
[19] = Toxicity in BALB/c mouse assessed as increase in albumin to globulin ratio administered at 300 mg/kg, po for 14 days; assay type: organism-based; details: in vivo, 336 h, time 14 day
[20] = Toxicity in BALB/c mouse assessed as induction of liver inflammation administered at 300 mg/kg, po for 14 days; assay type: organism-based; details: in vivo, 336 h, time 14 day
[21] = Toxicity in BALB/c mouse assessed as histopathological changes in lung administered at 300 mg/kg, po for 14 days; assay type: organism-based; details: in vivo, 336 h, time 14 day
KG-1 = experiment: Antiproliferative activity against human KG-1 cells incubated for 96 hrs by MTT assay; assay type: functional, cell-based; details: KG-1, 96 h
[22] = Toxicity in BALB/c mouse assessed as change in blood lymphocytes administered at 300 mg/kg, po for 14 days; assay type: organism-based, Lymphocyte; details: in vivo, 336 h, time 14 day
[23] = Toxicity in BALB/c mouse assessed as histopathological changes in kidney administered at 300 mg/kg, po for 14 days; assay type: organism-based; details: in vivo, 336 h, time 14 day
[24] = Toxicity in BALB/c mouse assessed as change in blood MCHC administered at 300 mg/kg, po for 14 days; assay type: organism-based; details: in vivo, 336 h, time 14 day
[25] = Toxicity in BALB/c mouse assessed as change in blood RDW administered at 300 mg/kg, po for 14 days; assay type: organism-based; details: in vivo, 336 h, time 14 day
[26] = Toxicity in BALB/c mouse assessed as change in blood MPV administered at 300 mg/kg, po for 14 days; assay type: organism-based; details: in vivo, 336 h, time 14 day
A-375 = experiment: Antiproliferative activity against human A-375 cells incubated for 96 hrs by MTT assay; assay type: functional, cell-based; details: A-375, 96 h
[27] = Toxicity in BALB/c mouse assessed as change in blood MCH administered at 300 mg/kg, po for 14 days; assay type: organism-based; details: in vivo, 336 h, time 14 day
[28] = Cytotoxicity against human NCM460 cells incubated for 96 hrs by MTT assay; assay type: toxicity, cell-based
U-937 = experiment: Antiproliferative activity against human U-937 cells incubated for 96 hrs by MTT assay; assay type: functional, cell-based; details: U-937, 96 h
[29] = Lipophilicity, logP of compound; assay type: physicochemical; details: octanol/water

T1 sequence (Q02127 whole entry): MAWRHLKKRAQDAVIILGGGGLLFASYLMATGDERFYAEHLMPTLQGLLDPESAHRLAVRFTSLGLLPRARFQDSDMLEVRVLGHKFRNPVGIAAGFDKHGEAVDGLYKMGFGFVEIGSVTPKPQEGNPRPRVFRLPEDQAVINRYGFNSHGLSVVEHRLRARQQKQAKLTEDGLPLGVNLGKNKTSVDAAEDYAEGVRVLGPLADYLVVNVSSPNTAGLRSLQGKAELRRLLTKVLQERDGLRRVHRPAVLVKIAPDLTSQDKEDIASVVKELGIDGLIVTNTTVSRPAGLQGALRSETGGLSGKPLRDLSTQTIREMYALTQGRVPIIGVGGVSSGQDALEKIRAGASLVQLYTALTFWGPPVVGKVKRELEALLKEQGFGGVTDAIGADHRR
Voltage-gated inwardly rectifying potassium channel KCNH2, sequence (Q12809 whole entry): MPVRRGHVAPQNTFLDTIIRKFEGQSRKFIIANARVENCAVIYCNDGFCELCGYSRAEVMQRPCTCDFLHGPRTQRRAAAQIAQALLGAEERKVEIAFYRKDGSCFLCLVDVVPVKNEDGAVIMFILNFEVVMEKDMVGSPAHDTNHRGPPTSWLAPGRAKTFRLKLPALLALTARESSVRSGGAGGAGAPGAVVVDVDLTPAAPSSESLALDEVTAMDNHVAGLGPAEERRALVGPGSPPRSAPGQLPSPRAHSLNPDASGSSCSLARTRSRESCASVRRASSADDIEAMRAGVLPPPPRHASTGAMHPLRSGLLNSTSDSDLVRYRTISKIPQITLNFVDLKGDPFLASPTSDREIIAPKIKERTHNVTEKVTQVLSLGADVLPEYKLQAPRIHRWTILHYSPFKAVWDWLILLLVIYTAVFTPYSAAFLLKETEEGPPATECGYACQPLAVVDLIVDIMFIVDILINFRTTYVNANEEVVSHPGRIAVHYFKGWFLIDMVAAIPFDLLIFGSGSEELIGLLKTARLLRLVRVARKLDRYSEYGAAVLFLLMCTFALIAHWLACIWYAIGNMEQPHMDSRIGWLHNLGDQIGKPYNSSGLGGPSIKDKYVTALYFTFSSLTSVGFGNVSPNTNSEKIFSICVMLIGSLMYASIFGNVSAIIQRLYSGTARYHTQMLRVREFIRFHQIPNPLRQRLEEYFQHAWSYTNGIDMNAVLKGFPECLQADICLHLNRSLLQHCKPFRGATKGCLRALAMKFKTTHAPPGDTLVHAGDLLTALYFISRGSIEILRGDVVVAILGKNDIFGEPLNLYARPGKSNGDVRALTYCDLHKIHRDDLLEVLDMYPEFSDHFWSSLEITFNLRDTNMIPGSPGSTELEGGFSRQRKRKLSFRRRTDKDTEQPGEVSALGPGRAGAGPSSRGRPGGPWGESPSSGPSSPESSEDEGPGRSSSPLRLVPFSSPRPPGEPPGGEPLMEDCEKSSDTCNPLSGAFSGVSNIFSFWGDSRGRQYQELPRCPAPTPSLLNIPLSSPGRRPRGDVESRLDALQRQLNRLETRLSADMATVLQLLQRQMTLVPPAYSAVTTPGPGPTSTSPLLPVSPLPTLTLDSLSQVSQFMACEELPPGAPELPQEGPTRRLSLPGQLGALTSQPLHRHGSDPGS

Work on COc1cc(NC(=O)/C(C#N)=C(/C)O)c(F)cc1C(=O)c1ccccc1 yielded an inhibition [1] of 82.4% and an inhibition [2] of 48.5%.

Molecule C/C(O)=C(\C#N)C(=O)Nc1cc(O[C@@H](C)C(F)(F)F)c(C(=O)c2ccc(F)cc2)cc1F has an inhibition [1] of 91.6%, an inhibition [2] of 56.4% and an IC50 [3] of 71.8 nM.

With C/C(O)=C(\C#N)C(=O)Nc1cc(O[C@@H](C)C(F)(F)F)c(C(=O)c2ccccc2)cc1F the inhibition [1] was 95.3%, the inhibition [2] was 71.5% and the Ratio IC50 [4] was 14. For the same molecule, the IC50 [3] was 29 nM.

In the case of O=C(c1ccccc1)c1ccc(Nc2ncccc2C(=O)O)cc1, the inhibition [1] is reported as 80.4%, the inhibition [2] is reported as 38.3% and the IC50 [3] is reported as 178 nM.

Molecule O=C(c1ccccc1)c1ccc(Nc2ncccc2C(=O)O)c(Cl)c1 has an inhibition [1] of 88.1%, an inhibition [2] of 62.4% and an IC50 [3] of 63.5 nM.

C/C(O)=C(\C#N)C(=O)Nc1cc(O[C@@H](C)C(F)(F)F)c(C#N)cc1F showed an inhibition [1] of 76.3% and an inhibition [2] of 31.8%.

C/C(O)=C(\C#N)C(=O)Nc1ccc(C(F)(F)F)cc1 showed an inhibition [2] of 21.5%.

With C/C(O)=C(\C#N)C(=O)Nc1cc(O[C@@H](C)C(F)(F)F)c(C(=O)c2cccc(F)c2)cc1F the inhibition [1] was 92.1%, the inhibition [2] was 59.3% and the IC50 [3] was 63.5 nM.

With C/C(O)=C(\C#N)C(=O)Nc1cc(O[C@@H](C)C(F)(F)F)c(C(=O)c2ccccc2F)cc1F the Activity [5] was “Toxic”, the selectivity ratio [6] was 21 and the Activity [7] was “Non-Toxic”. For the same molecule, the IC50 (SUD4) was 1650 nM, the Activity [8] was “Non-Toxic” and the Activity [9] was “Non-Toxic”. The IC50 (HCT-116) was 640 nM, the Activity [10] was “Non-Toxic” and the Activity [11] was “Non-Toxic”. For the same molecule, the Activity [12] was “Non-Toxic”, the Activity [13] was “Non-Toxic” and the inhibition [1] was 96.9%. For the same molecule, the IC50 at 96 h [14] was 2100 nM, the solubility [15] was 109 µg/mL (≈ 241 µM) and the IC50 (Kasumi 1) was 410 nM. The IC50 at 96 h [16] was 60500 nM, the Activity [17] was “Non-Toxic” and the IC50 (Raji) was 100 nM. The IC50 [18] was over 100000 nM, the Activity [19] was “Toxic” and the Activity [20] was “Toxic”. For the same molecule, the Activity [21] was “Non-Toxic”, the IC50 (KG-1) was 530 nM and the Activity [22] was “Non-Toxic”. For the same molecule, the inhibition [2] was 79.1%, the Activity [23] was “Non-Toxic” and the Activity [24] was “Non-Toxic”. The Activity [25] was “Non-Toxic”, the Activity [26] was “Non-Toxic” and the IC50 (A-375) was 950 nM. The Activity [27] was “Non-Toxic”, the IC50 at 96 h [28] was over 10000 nM and the IC50 [3] was 23.9 nM. The IC50 (U-937) was 520 nM and the logP [29] was 2.16.

C/C(O)=C(\C#N)C(=O)Nc1cc(O[C@@H](C)C(F)(F)F)c(C(=O)c2ccc(Cl)cc2)cc1F showed an inhibition [1] of 91.3%, an inhibition [2] of 56.8% and an IC50 [3] of 70.5 nM.

With C/C(O)=C(\C#N)C(=O)Nc1cc(OC(C)C)c(C(=O)c2ccccc2)cc1F the inhibition [1] was 89.9%, the inhibition [2] was 66.1% and the IC50 [3] was 37.1 nM.

COc1ccc(C(=O)c2cc(F)c(NC(=O)/C(C#N)=C(/C)O)cc2O[C@@H](C)C(F)(F)F)cc1 gave an inhibition [1] of 90% and an inhibition [2] of 52.1%.

In the case of C/C(O)=C(\C#N)C(=O)Nc1ccc(C(=O)c2ccccc2)cc1F, the inhibition [1] is reported as 70.7% and the inhibition [2] is reported as 32.1%.

Work on O=C(c1ccccc1)c1cc(F)c(Nc2ncccc2C(=O)O)c(F)c1 yielded an inhibition [1] of 90.4%, an inhibition [2] of 67.2% and an IC50 [3] of 35.1 nM.

For C/C(O)=C(\C#N)C(=O)Nc1cc(O[C@@H](C)C(F)(F)F)c(C(=O)c2ccc3ccccc3c2)cc1F, the inhibition [1] was 90.2% and the inhibition [2] was 53.4%.

Molecule CCOc1cc(NC(=O)/C(C#N)=C(/C)O)c(F)cc1C(=O)c1ccccc1 has an inhibition [1] of 83.1% and an inhibition [2] of 49.8%.

With COc1cccc(C(=O)c2cc(F)c(NC(=O)/C(C#N)=C(/C)O)cc2O[C@@H](C)C(F)(F)F)c1 the inhibition [1] was 92.2%, the inhibition [2] was 57.2% and the IC50 [3] was 69.1 nM.

O=C(c1ccccc1)c1ccc(Nc2ncccc2C(=O)O)c(F)c1 gave an inhibition [1] of 86.3%, an inhibition [2] of 57.7% and an IC50 [3] of 66.1 nM.

C/C(O)=C(\C#N)C(=O)Nc1ccc(C(=O)c2ccccc2)c(F)c1 gave an inhibition [1] of 74.1% and an inhibition [2] of 31.7%.

C/C(O)=C(\C#N)C(=O)Nc1cc(O[C@@H](C)C(F)(F)F)c(C(=O)c2cccc(Cl)c2)cc1F gave an inhibition [1] of 93.7%, an inhibition [2] of 61.8% and an IC50 [3] of 54.8 nM.

CCC(C)Oc1cc(NC(=O)/C(C#N)=C(/C)O)c(F)cc1C(=O)c1ccccc1 (stereo unspecified) gave an inhibition [1] of 90.1%, an inhibition [2] of 65.4% and an IC50 [3] of 35.6 nM.

With C/C(O)=C(\C#N)C(=O)Nc1ccc(C(=O)c2ccccc2)cc1 the inhibition [1] was 57.3% and the inhibition [2] was 30.8%.

In the case of C/C(O)=C(\C#N)C(=O)Nc1cc(F)c(C(=O)c2ccccc2)cc1F, the inhibition [1] is reported as 76.3% and the inhibition [2] is reported as 43.8%.
